Results: PMC8453635, “Piperidine Azasugars Bearing Lipophilic Chains: Stereoselective Synthesis and Biological Activity as Inhibitors of Glucocerebrosidase (GCase)” (The Journal of Organic Chemistry, 2021)

Target: T1, α-fucosidase (Homo sapiens, UniProt P04066)
T1 construct: from leukocytes isolated from healthy donors (controls); from tissue; host or cells: leukocytes from healthy donors, sonicated homogenate
T1 sequence (P04066 32-466): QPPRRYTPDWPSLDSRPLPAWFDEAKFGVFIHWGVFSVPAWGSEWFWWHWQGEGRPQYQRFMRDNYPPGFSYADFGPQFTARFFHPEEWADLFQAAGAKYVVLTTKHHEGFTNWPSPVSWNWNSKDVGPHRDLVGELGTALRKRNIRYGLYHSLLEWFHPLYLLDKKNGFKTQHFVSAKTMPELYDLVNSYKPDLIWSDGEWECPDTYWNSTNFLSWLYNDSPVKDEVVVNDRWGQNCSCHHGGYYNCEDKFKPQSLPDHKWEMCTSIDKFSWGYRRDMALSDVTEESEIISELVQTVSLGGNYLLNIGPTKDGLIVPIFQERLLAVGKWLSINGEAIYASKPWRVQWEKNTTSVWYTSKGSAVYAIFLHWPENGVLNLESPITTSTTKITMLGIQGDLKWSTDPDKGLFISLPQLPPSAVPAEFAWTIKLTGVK
Assay: Human lysosomal glycosidase selectivity screening (leukocyte homogenate)
Type: biochemical
Details: 1 mM, read-out: percentage of inhibition, α-Fuco
Description: In order to avoid undesired inhibitory side effects of a potential new drug, it has to be selective for a given target. The selectivity of the newly synthesized compounds 14, 15, and 33·HCl toward GCase was then investigated, evaluating their inhibition at 1 mM concentration toward six other lysosomal glycosidases (namely, α-and β-mannosidases, α- and β-galactosidases, α-fucosidase, and α-glucosidase) in cell homogenates (leucocytes or lymphocytes) isolated from healthy donors. […] Indeed, only moderate inhibitory activity (ca. 50%) was found toward human β-galactosidase for both piperidines 14 and 15, while negligible inhibitory activity was detected in all other cases.
The effect of 1 mM concentration of 14, 15, and 33·HCl was assayed toward six lysosomal glycosidases other than GCase, namely, α-mannosidase, β-mannosidase, α-galactosidase, β-galactosidase, α-fucosidase from leukocytes isolated from healthy donors (controls) and α-glucosidase from lymphocytes isolated from healthy donors’ flesh blood (controls). Isolated leukocytes or lymphocytes were disrupted by sonication, and a micro BCA protein assay kit (Sigma-Aldrich) was used to determine the total protein amount for the enzymatic assay, according to the manufacturer’s instructions (for more details, see the Supporting Information section). […]
α-Fucosidase activity was measured in a flat -bottomed 96 -well plate. […] The reaction was stopped by addition of sodium carbonate (200 μL; 0.5M, pH 10.7) containing Triton X -100 (0.0 025 %), and the fluorescence 4 -methylumbelliferone released by α- fucosidase activity was measured in SpectraMax M2 microplate reader ( λex=365 nm, λem=435 nm; Molecular Devices). […]
α-Glucosidase activity was measured in a flat –bottomed 96 well plate. […] The reaction was stopped by the addition of a solution of sodium carbonate (200 µL; 0.5M, pH 10.7) containing Triton X -100 (0.0025 %), and the fluorescence of 4 -methylumbelliferone released by α-glucosidase activity was measured in […]
Figure S 48. […] The corresponding calculated percentage of inhibition is indicated above each bar.

In order of falling inhibition at 1000 µM:
1. CCCCCCCC[C@H]1[C@@H](O)[C@H](O)[C@H](O)CN1CCCCCCCC [compound 14, (2S,3R,4R,5R)-1,2-Dioctylpiperidine-3,4,5-triol]  25%
2. CCCCCCCC[C@@H]1[C@@H](O)[C@H](O)[C@H](O)CN1CCCCCCCC [compound 15, (2R,3R,4R,5R)-1,2-Dioctylpiperidine-3,4,5-triol]  24%
3. CCCCCCCC[C@@H]1[C@@H](O)[C@H](O)[C@H](O)CN1C(CCCCCCC)CCCCCCC.Cl [compound 33·HCl, (2R,3R,4R,5R)-2-Octyl-1-(pentadecan-8-yl)-piperidine-3,4,5-triol Hydrochloride]  5%
